The text below walks through data of ChEMBL document CHEMBL3396999, “2-Benzisothiazolylimino-5-benzylidene-4-thiazolidinones as protective agents against cartilage destruction” (Bioorg Med Chem, 2015).

Active and inactive are the calls of the source. The rule behind the calls is not given here. A value given as a limit tells only on which side of the number the result lay.

Data set [1] is described as follows: Chondroprotective activity in IL-1beta-induced normal human articular chondrocytes assessed as increase in glycosaminoglycans level at 10 uM by 1,9-dimethylmethylene blue staining based spectrophotometry relative to IL-1beta. It counts as functional.
The nature of data set [2]: Chondroprotective activity in IL-1beta-induced normal human articular chondrocytes assessed as reduction in nitric oxide level at 10 uM after 120 hrs by Griess reagent based method. It counts as functional. On the technique in general: Griess reagent forms a coloured azo dye with nitrite.
The target of data set [3] is Stromelysin-1 (Homo sapiens, UniProt P08254). In words: Inhibition of MMP3 catalytic domain (unknown origin) assessed as reduction in hydrolysis of Mca-Pro-Leu-Gly-Leu-Dpa-Ala-Arg-NH2 substrate measured for 3 mins after substrate addition by fluorescence assay.
Stromelysin-1, sequence (P08254 whole entry, the tested form may be a part): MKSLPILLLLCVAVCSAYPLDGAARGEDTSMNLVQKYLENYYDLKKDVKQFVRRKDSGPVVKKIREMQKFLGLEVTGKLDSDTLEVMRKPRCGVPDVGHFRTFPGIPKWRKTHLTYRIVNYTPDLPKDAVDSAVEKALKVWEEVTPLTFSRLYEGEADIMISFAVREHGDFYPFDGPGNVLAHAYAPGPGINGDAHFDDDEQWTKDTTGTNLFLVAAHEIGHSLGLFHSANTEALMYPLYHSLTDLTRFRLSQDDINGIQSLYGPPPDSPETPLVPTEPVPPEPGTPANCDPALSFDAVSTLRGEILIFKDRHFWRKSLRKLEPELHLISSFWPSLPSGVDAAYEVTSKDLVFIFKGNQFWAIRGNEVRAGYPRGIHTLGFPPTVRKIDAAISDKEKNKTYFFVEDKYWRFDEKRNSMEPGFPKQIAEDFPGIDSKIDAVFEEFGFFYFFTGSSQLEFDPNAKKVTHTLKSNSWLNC
Data set [4] concerns the target Collagenase 3 (Homo sapiens, UniProt P45452). Description: Inhibition of MMP13 catalytic domain (unknown origin) assessed as reduction in hydrolysis of Mca-Pro-Leu-Gly-Leu-Dpa-Ala-Arg-NH2 substrate measured for 3 mins after substrate addition by fluorescence assay.
Data set [5] in a line: Antioxidant activity assessed as AAPH radical scavenging activity assessed as Trolox equivalents by ORAC assay. It counts as physicochemical.
The nature of data set [6]: Toxicity against normal human articular chondrocytes assessed as reduction in cell viability by MTT assay.
Data set [7] addresses Nuclear factor NF-kappa-B complex (Homo sapiens) (UniProt Q00653+P19838+Q04206). In words: Inhibition of nuclear factor-kappa-B in IL-1beta-induced normal human articular chondrocytes at 10 uM after 120 hrs by Western blotting method.
The nature of data set [8]: Chondroprotective activity in IL-1beta-induced normal human articular chondrocytes assessed as MMP13 protein release at 10 uM after 120 hrs by ELISA method (reference value: 112 ng/ml). It counts as functional. (In general: An ELISA detects its analyte on a solid surface through an enzyme-linked reagent.)

Nuclear factor NF-kappa-B complex (Homo sapiens), sequence (P19838 whole entry, looked up): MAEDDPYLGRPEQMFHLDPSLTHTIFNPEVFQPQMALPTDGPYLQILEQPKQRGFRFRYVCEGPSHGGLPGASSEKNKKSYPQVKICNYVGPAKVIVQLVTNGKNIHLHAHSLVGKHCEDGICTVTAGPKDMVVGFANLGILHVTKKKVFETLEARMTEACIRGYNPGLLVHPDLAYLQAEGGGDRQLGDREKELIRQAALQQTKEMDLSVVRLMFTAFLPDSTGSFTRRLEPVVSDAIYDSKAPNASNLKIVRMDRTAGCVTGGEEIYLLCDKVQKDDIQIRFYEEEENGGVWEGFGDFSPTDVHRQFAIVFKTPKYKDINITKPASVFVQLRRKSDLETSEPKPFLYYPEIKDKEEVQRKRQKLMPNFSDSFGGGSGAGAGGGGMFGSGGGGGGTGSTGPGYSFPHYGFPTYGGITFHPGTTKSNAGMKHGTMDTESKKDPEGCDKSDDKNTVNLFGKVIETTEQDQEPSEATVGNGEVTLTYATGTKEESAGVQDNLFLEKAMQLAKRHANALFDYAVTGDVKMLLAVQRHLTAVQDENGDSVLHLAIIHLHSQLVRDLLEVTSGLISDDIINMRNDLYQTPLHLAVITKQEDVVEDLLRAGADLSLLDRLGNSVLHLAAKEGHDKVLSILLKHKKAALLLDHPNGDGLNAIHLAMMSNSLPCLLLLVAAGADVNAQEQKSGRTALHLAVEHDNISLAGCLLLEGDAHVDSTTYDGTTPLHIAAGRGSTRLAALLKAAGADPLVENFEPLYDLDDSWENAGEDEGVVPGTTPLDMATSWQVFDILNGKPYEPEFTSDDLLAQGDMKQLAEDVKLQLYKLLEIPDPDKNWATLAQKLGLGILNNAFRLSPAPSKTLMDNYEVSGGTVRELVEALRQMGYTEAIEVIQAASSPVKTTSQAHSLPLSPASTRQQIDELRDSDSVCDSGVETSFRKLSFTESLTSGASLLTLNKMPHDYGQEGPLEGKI
Nuclear factor NF-kappa-B complex (Homo sapiens), sequence (Q00653 whole entry, looked up): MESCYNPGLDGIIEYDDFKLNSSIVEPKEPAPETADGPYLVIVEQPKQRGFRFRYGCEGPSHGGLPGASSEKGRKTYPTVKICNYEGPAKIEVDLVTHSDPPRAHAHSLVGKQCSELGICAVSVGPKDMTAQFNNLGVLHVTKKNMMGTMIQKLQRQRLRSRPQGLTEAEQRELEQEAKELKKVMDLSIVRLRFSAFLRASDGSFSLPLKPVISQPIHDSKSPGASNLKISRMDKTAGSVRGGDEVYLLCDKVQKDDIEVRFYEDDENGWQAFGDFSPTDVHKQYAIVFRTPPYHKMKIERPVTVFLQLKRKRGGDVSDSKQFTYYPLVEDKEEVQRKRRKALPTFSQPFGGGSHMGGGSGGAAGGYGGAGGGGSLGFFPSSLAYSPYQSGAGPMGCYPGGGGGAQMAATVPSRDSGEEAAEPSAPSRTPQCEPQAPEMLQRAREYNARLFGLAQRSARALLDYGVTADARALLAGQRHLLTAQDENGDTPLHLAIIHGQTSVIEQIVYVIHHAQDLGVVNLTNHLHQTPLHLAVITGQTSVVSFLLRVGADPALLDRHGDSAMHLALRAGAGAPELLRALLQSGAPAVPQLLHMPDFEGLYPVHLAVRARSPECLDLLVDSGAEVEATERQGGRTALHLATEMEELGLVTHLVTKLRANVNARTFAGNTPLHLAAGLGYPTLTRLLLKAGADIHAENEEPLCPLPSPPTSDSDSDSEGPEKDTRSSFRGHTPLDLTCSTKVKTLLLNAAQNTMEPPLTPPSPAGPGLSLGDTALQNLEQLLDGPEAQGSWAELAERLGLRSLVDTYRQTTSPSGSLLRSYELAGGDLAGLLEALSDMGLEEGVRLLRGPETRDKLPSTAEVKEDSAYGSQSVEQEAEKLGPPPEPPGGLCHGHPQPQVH
Nuclear factor NF-kappa-B complex (Homo sapiens), sequence (Q04206 whole entry, looked up): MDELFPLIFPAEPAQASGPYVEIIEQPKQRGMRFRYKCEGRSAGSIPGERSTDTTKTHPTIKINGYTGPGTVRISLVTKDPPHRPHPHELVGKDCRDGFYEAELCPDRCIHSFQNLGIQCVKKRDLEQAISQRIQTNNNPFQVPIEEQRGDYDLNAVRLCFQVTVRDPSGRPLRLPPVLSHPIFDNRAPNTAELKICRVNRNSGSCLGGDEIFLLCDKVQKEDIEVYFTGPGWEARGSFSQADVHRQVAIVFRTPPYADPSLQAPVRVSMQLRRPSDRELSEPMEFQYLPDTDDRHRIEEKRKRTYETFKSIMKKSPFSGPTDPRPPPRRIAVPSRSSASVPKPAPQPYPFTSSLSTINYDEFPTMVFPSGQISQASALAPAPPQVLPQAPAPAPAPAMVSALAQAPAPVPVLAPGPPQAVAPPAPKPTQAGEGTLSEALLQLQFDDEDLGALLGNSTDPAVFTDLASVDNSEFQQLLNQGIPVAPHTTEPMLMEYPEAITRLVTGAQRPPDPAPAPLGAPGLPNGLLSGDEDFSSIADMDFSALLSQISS

On to `O=C1N/C(=N/c2nsc3ccccc23)S/C1=C\c1ccc(Cl)cc1`, for which the Activity is recorded as 30% in data set [1], 1.64 in data set [5] and “Non-toxic” in data set [6]. Also, the inhibition (usually the share of the control response that was lost under treatment) at 10 µM in data set [2] was 46%. Moreover, the IC50 (as a rule, the point on the concentration scale where inhibition reaches its midpoint) in data set [3] was 65 µM; in data set [4], 25 µM.

As to `O=C1N/C(=N/c2nsc3ccccc23)S/C1=C\c1cccc([N+](=O)[O-])c1`, the Activity was 37% in data set [1], “>= 100” in data set [5] and “Non-toxic” in data set [6]. Further, in data set [2], the inhibition at 10 µM was found to be 46%. The values for the concentration for half-maximal inhibition (IC50) in data set [3] and in data set [4] were at least 100 µM and 55.9 µM, respectively.

On to `O=C1N/C(=N/c2nsc3ccccc23)S/C1=C\c1ccccc1`, for which the Activity is on record as 28% in data set [1] and “Non-toxic” in data set [6]. In addition, the inhibition at 10 µM in data set [2] was 42%. Also, the IC50 in data set [3] was at least 100 µM; in data set [4], 32 µM.

In the case of `O=C1N/C(=N/c2nsc3ccccc23)S/C1=C/c1ccccc1O`, the Activity in data set [1] is given as 40%; in data set [5], 0.8; in data set [6], “Non-toxic”. In addition, the inhibition at 10 µM in data set [2] worked out at 29%. Besides, the IC50 in data set [3] is 97.4 µM; in data set [4], at least 100 µM.

As to `O=C1N/C(=N/c2nsc3ccccc23)S/C1=C/c1cccc(O)c1`, the figures for the Activity in data set [1], in data set [5] and in data set [6] were 32%, 1.2 and “Non-toxic”, respectively. Besides, in data set [2], the inhibition at 10 µM worked out at 9%. Moreover, the IC50 in data set [3] was at least 100 µM; in data set [4] it was 26.9 µM.

For the compound `COc1cc(/C=C2\S/C(=N\c3nsc4ccccc34)NC2=O)ccc1O`, the Activity is 40% in data set [1], 1.35 in data set [5], “Non-toxic” in data set [6] and 4.3 ng/mL in data set [8]. In addition, the inhibition at 10 µM in data set [2] was 66%. In addition, the IC50 in data set [3] is 3.15 µM; in data set [4], at least 100 µM. In addition, the inhibition entry in data set [7] was “Active”.

As to `O=C1N/C(=N/c2nsc3ccccc23)S/C1=C\c1ccccc1[N+](=O)[O-]`, the Activity in data set [1] was 31%; in data set [5] it was “>= 100”; in data set [6], “Non-toxic”. Besides, the inhibition at 10 µM in data set [2] is 48%. Besides, the IC50 amounted to 43 µM in data set [3] and 64 µM in data set [4].

As to `O=C1N/C(=N/c2nsc3ccccc23)S/C1=C\c1ccccc1Cl`, the Activity in data set [1] is listed as 34%; in data set [5], 0.45; in data set [6], “Non-toxic”. The inhibition at 10 µM in data set [2] worked out at 13%. In addition, the values for the IC50 in data set [3] and in data set [4] were 6.19 µM and 89.4 µM, respectively.
